The target in one test is T1, Vitamin D3 receptor (Homo sapiens, UniProt P11473).
T1 sequence (P11473 whole entry): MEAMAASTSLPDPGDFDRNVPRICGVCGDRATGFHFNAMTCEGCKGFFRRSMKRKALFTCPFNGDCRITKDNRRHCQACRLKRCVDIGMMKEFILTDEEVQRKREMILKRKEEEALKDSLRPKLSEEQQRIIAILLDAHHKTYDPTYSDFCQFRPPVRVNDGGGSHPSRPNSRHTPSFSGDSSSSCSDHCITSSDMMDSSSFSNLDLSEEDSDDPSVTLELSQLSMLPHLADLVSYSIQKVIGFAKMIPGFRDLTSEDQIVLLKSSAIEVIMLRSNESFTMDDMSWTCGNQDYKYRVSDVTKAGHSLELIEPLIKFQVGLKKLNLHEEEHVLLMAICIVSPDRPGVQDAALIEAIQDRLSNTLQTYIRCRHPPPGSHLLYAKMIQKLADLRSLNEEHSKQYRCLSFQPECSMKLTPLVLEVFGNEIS
Put plainly: Agonist activity at human VDR expressed in HOS cells co-expressing human RXR by Dual-Glo luciferase reporter gene assay. The test is classed as cell-based. Background: A reporter such as luciferase makes a cellular process visible.

In test [1] the target is T2, Vitamin D3 receptor (Homo sapiens) (UniProt P11473).
T2 sequence (whole entry): T1 sequence (P11473 whole entry)
Put plainly: Agonist activity at human VDR expressed in HOS cells co-expressing human RXR at 0.00001 to 10 uM by Dual-Glo luciferase reporter gene assay relative to 1alpha,25(OH)2D3. The test is classed as cell-based.

Data on seven compounds can be found in ChEMBL document CHEMBL4382222, “Structural development of non-secosteroidal vitamin D receptor (VDR) ligands without any asymmetric carbon” (Bioorg Med Chem, 2018).

Regarding `CCC(O)(CC)COc1ccc(C(CC)(CC)c2ccc(OCC(CO)CO)c(C)c2)cc1C`, on Vitamin D3 receptor, a half-maximal response (EC50) required 9.26 nM. The Emax (usually the size of the effect at its maximum, as opposed to the concentration needed) in test [1] amounted to 100%.

As to `CCC(O)(CC)COc1ccc(C(CC)(CC)c2ccc(OC(CO)CO)c(C)c2)cc1C`, at Vitamin D3 receptor, the midpoint of the response, the EC50, lay at 17.2 nM. The Emax in test [1] amounted to 100%.

Turning to `CCC(O)(CC)COc1ccc(C(CC)(CC)c2ccc(OC[C@@H](O)CO)c(C)c2)cc1C`, the midpoint of the response on Vitamin D3 receptor, the EC50, lay at 18 nM. This compound gave an Emax in test [1] of 90%.

As to `CCC(CC)(c1ccc(OC[C@@H](O)CO)c(C)c1)c1ccc(OCC(C)(C)O)c(C)c1`, the EC50 (usually the midpoint of the concentration-response curve) on Vitamin D3 receptor was 163 nM. The compound further registered an Emax in test [1] of 67%.

The compound `CCC(CC)(c1ccc(OCCC(C)(C)O)c(C)c1)c1ccc(OC[C@@H](O)CO)c(C)c1` returned an EC50 at Vitamin D3 receptor of 41.7 nM. In addition, in test [1], the Emax was 100%.

In turn, `CCC(CC)(c1ccc(OCC(CO)CO)c(C)c1)c1ccc(OCC(C)(C)O)c(C)c1` displayed an EC50 on Vitamin D3 receptor of 76.5 nM. In addition, in test [1], the Emax was 91%.

`CCC(CC)(c1ccc(OCCC(C)(C)O)c(C)c1)c1ccc(OCC(CO)CO)c(C)c1` registered an EC50 at Vitamin D3 receptor of 76.9 nM. In test [1], this compound yielded an Emax of 91%.
